How the values were obtained:
porcine CCK-2 receptor = molecular target: T1, porcine CCK-2 receptor (Sus scrofa, UniProt A0A287A2K5); assay: cell-based; conditions: pig CCK-2 receptor in COS-7 cells, IP-One, n = 3; highest dose tested 100 nM; read-out: Activation Mean EC50
T1 construct: expressed in transfected cells; host or cells: COS-7

porcine CCK-1 receptor [1] = molecular target: T2, porcine CCK-1 receptor (Sus scrofa, UniProt I3LFK5); assay: biochemical; conditions: pig CCK-1 receptor over-expressed in COS-7 cells, SPA, n = 3; read-out: Binding Mean IC50
T2 construct: expressed in transfected cells; host or cells: COS-7
T2 sequence (I3LFK5 1-428): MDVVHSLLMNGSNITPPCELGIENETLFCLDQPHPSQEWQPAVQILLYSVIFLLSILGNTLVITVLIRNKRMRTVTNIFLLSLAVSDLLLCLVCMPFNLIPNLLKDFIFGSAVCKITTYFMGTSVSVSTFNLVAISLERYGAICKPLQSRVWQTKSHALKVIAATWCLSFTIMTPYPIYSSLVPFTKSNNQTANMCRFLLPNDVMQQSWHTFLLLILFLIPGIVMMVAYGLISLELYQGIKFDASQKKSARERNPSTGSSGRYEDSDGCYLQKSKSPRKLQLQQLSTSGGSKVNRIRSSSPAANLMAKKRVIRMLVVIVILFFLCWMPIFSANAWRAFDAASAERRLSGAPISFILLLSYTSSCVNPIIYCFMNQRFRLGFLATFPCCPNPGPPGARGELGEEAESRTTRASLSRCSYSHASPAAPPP

porcine CCK-1 receptor [2] = molecular target: T2, porcine CCK-1 receptor; assay: cell-based; conditions: pig CCK-1 receptor in COS-7 cells, IP-One, n = 3; read-out: Activation Mean EC50
[3] = set-up: method as in PMID 7084608; conditions: cited from earlier work
[4] = obese humans, after 24 weeks of treatment; cited from earlier work

T1 sequence (A0A287A2K5 whole entry): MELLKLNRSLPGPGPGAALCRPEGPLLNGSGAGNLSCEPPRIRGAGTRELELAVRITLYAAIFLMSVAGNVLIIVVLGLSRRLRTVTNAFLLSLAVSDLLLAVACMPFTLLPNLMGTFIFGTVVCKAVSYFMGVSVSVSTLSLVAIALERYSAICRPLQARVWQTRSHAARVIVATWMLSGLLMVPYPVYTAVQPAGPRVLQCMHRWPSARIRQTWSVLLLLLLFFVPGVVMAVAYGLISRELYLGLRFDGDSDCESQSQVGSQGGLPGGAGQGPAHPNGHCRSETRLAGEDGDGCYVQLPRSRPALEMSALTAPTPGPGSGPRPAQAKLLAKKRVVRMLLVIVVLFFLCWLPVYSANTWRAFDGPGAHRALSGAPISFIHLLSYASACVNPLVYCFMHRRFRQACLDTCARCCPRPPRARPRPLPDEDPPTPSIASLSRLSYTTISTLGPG

## CSCC[C@H](NC(=O)[C@H](Cc1ccc(OS(=O)(=O)O)cc1)NC(=O)[C@@H](N)CC(=O)O)C(=O)NCC(=O)N[C@@H](Cc1c[nH]c2ccccc12)C(=O)N[C@@H](CCSC)C(=O)N[C@@H](CC(=O)O)C(=O)N[C@@H](Cc1ccccc1)C(N)=O [CCK-8]
Porcine CCK-2 receptor
  EC50: 0.325 nM
Porcine CCK-1 receptor [1]
  IC50: 0.199 nM
Porcine CCK-1 receptor [2]
  EC50: 0.221 nM

## Cholecystokinin [CCK]
[3]
  Circulating half-life: < 5 min

## CC(C)N(C(=O)CN1C(=O)[C@H](NC(=O)Nc2cccc(C(=O)O)c2)C(=O)N(c2ccccc2)c2ccccc21)c1ccccc1 [GI181771X]
[4]
  Weight loss: failed to induce weight loss
